Read-outs that look alike come from different tables or passages of the source.
Legend:
[1] = test system: hamster under mixed anesthesia with pentobarbital and xylazine; settings: n=5; for Influence on the QRS interval / Influence on the RR interval: over the doses tested
[2] = test system: anesthetized dogs; settings: calculated on the basis of the results of the cited report; cited from earlier work

SMILES	Degree of prolongation of the QT interval ([1]; 1 mg/kg iv)	Influence on the QRS interval ([1]; iv)	Influence on the RR interval ([1]; iv)	Single dose for intravenous administration providing 10% of prolongation of the duration of monophasic action potential [2] [mg/kg]	Degree of prolongation of the QT interval ([1]; 100 μg/kg iv)	Influence on the PQ interval ([1]; iv, doses tested 1, 10 and 100 μg/kg)
CC(C)(C)c1ccc(C(O)CCCN2CCC(C(O)(c3ccccc3)c3ccccc3)CC2)cc1 (centres unmarked) [terfenadine]	about 20%	did not significantly affect	did not significantly affect	–	–	–
COc1cc(N)c(Cl)cc1C(=O)NC1CCN(CCCOc2ccc(F)cc2)CC1OC (centres unmarked) [cisapride]	–	did not significantly affect	did not significantly affect	0.1	about 20%	did not significantly affect

— patent publication US8000781B2, “Method of evaluating effect of prolonging QT interval in electrocardiogram” (Eisai R&D Management Co., Ltd., priority 2005, dated 2011)
